Measured values: US20250312352A1, “GLP-1R MODULATING COMPOUNDS” (Gilead Sciences, Inc., priority 2021, published 2025)

These compounds were tested against T1, GLP-1R (Homo sapiens, UniProt P43220) (assay: GLP-1R activation cAMP assay (Assay 1 or Assay 2)). Details: cAMP increase in CHO cells stably expressing GLP-1R; compounds run on one of the two cAMP assays.
T1 construct: host or cells: CHO cells
Assay type: cell-based
Protocol: GLP-1R ACTIVATION—cAMP Assay 1
GLP-1R activation by compounds of the present disclosure was quantified by measuring cAMP increase in CHO cells stably expressing GLP-1R (MultiSpan product #C1267-1a). The cells were harvested and plated in growth medium (DMEM/F-12 (Corning product #10-090-CV) supplemented with 10% FBS (HyClone product #SH30071-03), penicillin/streptomycin (Corning product #30-002CI) and 10 μg/ml puromycin (Gibco product #A11138-03)) at 1,000 cells/well in a 384-well plate (Greiner product #781080). The cells were then incubated overnight at 37° C., 5% CO2. The next day, the medium was removed and the cells were washed with DPBS (Corning product #21-031-CM) before adding the assay medium (HBSS, Corning product #21-023-CV) with 20 mM Hepes (Gibco product #15630-080) and 0.1% BSA (Rockland Immunochemicals product #BSA-1000)). Following the medium change, the cells were incubated for 1 hour at 37° C., 5% CO2. The tested GLP-1 compound was added to the cells in a 10-point dose response followed by a 30-minute incubation at 37° C., 5% CO2. cAMP concentration increase was then detected using Cisbio's cAMP Gs Dynamic Kit (product #62AM4PEC) according to the manufacturer's protocol. The response was plotted against the log of the agonist concentration and fitted to a sigmoidal equation to determine the EC50.
GLP-1R ACTIVATION—cAMP Assay 2
GLP-1R activation by small molecule agonists was quantified by measuring cAMP increase in CHO cells stably expressing GLP-1R (MultiSpan product #C1267-1a). 50 nL of agonists were pre-spotted in a 10-point dose response onto 384-well plate (Corning product #CL3826) using the Labcyte Echo System.

T1 sequence (P43220 24-463): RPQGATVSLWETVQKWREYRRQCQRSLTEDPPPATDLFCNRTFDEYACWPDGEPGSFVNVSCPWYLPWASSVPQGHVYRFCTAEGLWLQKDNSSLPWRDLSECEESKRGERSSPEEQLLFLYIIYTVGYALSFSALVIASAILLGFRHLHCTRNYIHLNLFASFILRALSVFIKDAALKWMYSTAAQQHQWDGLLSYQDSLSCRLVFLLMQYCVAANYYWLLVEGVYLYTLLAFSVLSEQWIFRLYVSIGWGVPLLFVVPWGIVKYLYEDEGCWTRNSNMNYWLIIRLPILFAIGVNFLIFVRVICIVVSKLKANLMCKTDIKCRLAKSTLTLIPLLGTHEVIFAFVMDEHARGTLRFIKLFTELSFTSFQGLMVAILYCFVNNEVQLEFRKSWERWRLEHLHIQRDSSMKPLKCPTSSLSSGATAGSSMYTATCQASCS

| Compound | EC50 [pM] |
| --- | --- |
| Cn1cc(C#Cc2cnc(COc3nc(-c4cc(F)c(Cc5nc6c(F)cc(C(=O)O)cc6n5C[C@@H]5CCO5)cc4F)ccc3F)c(F)c2)cn1 [Example 296, (S)-2-(2,5-difluoro-4-(5-fluoro-6-((3-fluoro-5-((1-methyl-1H-pyrazol-4-yl)ethynyl)pyridin-2-yl)methoxy)pyridin-2-yl)benzyl)-4-fluoro-1-(oxetan-2-ylmethyl)-1H-benzo[d]imidazole-6-carboxylic acid] | 36 |
| O=C(O)c1ccc2nc(Cc3cc(F)c(-c4cccc(OCc5ncc(-c6ccns6)s5)n4)cc3F)n(C[C@@H]3CCO3)c2c1 [Example 100, (S)-2-(2,5-difluoro-4-(6-((5-(isothiazol-5-yl)thiazol-2-yl)methoxy)pyridin-2-yl)benzyl)-1-(oxetan-2-ylmethyl)-1H-benzo[d]imidazole-6-carboxylic acid] | 90 |
| O=C(O)c1cc(F)c2nc(Cc3cc(F)c(-c4ccc(F)c(OCc5ncc(C(F)(F)F)s5)n4)cc3F)n(C[C@@H]3CCO3)c2c1 [Example 313, (S)-2-(2,5-difluoro-4-(5-fluoro-6-((5-(trifluoromethyl)thiazol-2-yl)methoxy)pyridin-2-yl)benzyl)-4-fluoro-1-(oxetan-2-ylmethyl)-1H-benzo[d]imidazole-6-carboxylic acid] | 32 |
| O=C(O)c1ccc2nc(Cc3cc(F)c(-c4cccc(OCc5ccn(C6COC6)n5)n4)cc3F)n(C[C@@H]3CCO3)c2c1 [Example 10, (S)-2-(2,5-difluoro-4-(6-((1-(oxetan-3-yl)-1H-pyrazol-3-yl)methoxy)pyridin-2-yl)benzyl)-1-(oxetan-2-ylmethyl)-1H-benzo[d]imidazole-6-carboxylic acid] | 7550 |
| COCCn1c(Cc2cc(F)c(-c3cccc(OCc4ccc(C(=O)NC5CC5)cc4)n3)cc2F)nc2ccc(C(=O)O)cc21 [Example 249, 2-[[4-[6-[[4-(cyclopropylcarbamoyl)phenyl]methoxy]-2-pyridyl]-2,5-difluoro-phenyl]methyl]-3-(2-methoxyethyl)benzimidazole-5-carboxylic acid] | 36100 |
| O=C(O)c1ccc2nc(Cc3cc(F)c(-c4cccc(OCc5cc(C(F)(F)F)cs5)n4)cc3F)n(C[C@@H]3CCO3)c2c1 [Example 55, (S)-2-(2,5-difluoro-4-(6-((4-(trifluoromethyl)thiophen-2-yl)methoxy)pyridin-2-yl)benzyl)-1-(oxetan-2-ylmethyl)-1H-benzo[d]imidazole-6-carboxylic acid] | 440 |
| O=C(O)c1cc(F)c2nc(Cc3cc(F)c(-c4cccc(OCc5ncc(Cl)s5)n4)cc3F)n(C[C@@H]3CCO3)c2c1 [Example 319, (S)-2-(4-(6-((5-chlorothiazol-2-yl)methoxy)pyridin-2-yl)-2,5-difluorobenzyl)-4-fluoro-1-(oxetan-2-ylmethyl)-1H-benzo[d]imidazole-6-carboxylic acid] | 34 |
| COc1nnc(COc2nc(-c3cc(F)c(Cc4nc5ccc(C(=O)O)cc5n4[C@@H]4COCC4(C)C)cc3C)ccc2F)s1 [Example 258, (S)-1-(4,4-dimethyltetrahydrofuran-3-yl)-2-(2-fluoro-4-(5-fluoro-6-((5-methoxy-1,3,4-thiadiazol-2-yl)methoxy)pyridin-2-yl)-5-methylbenzyl)-1H-benzo[d]imidazole-6-carboxylic acid] | 483 |
| 2-(4-(6-((5-(difluoromethyl)thiazol-2-yl)methoxy)pyridin-2-yl)-2,5-difluorobenzyl)-4-fluoro-1-((1-(fluoromethyl)cyclopropyl)methyl)-1H-benzo[d]imidazole-6-carboxylic acid [Example 413] | 360 |
| NC(=O)c1ccc(COc2cccc(-c3cc(F)c(Cc4nc5ccc(C(=O)O)cc5n4C[C@@H]4CCO4)cc3F)n2)nc1 [Example 248, 2-[[4-[6-[(5-carbamoyl-2-pyridyl)methoxy]-2-pyridyl]-2,5-difluoro-phenyl]methyl]-3-[[(2S)-oxetan-2-yl]methyl]benzimidazole-5-carboxylic acid] | 5610 |
| COc1nnc(COc2cccc(-c3cc(F)c(Cc4nc5ccc(C(=O)O)cc5n4CC4(CF)CC4)cc3F)n2)s1 [Example 272, 2-(2,5-difluoro-4-(6-((5-methoxy-1,3,4-thiadiazol-2-yl)methoxy)pyridin-2-yl)benzyl)-1-((1-(fluoromethyl)cyclopropyl)methyl)-1H-benzo[d]imidazole-6-carboxylic acid] | 1900 |
| O=C(O)c1ccc2nc(Cc3cc(F)c(-c4cccc(OCc5cnc(C(=O)NC6(C(F)F)CC6)cc5Cl)n4)cc3F)n(C[C@@H]3CCO3)c2c1 [Example 186, (S)-2-(4-(6-((4-chloro-6-((1-(difluoromethyl)cyclopropyl)carbamoyl)pyridin-3-yl)methoxy)pyridin-2-yl)-2,5-difluorobenzyl)-1-(oxetan-2-ylmethyl)-1H-benzo[d]imidazole-6-carboxylic acid] | 910 |
| O=C(O)c1ccc2nc(Cc3cc(F)c(-c4cccc(OCc5ncc(-c6ccc(Cl)cc6)s5)n4)cc3F)n(C[C@@H]3CCO3)c2c1 [Example 384, (S)-2-(4-(6-((5-(4-chlorophenyl)thiazol-2-yl)methoxy)pyridin-2-yl)-2,5-difluorobenzyl)-1-(oxetan-2-ylmethyl)-1H-benzo[d]imidazole-6-carboxylic acid] | 563 |
| CC(C)(C#N)C#Cc1cnc(COc2cccc(-c3cc(F)c(Cc4nc5ccc(C(=O)O)cc5n4C[C@@H]4CCO4)cc3F)n2)s1 [Example 328, (S)-2-(4-(6-((5-(3-cyano-3-methylbut-1-yn-1-yl)thiazol-2-yl)methoxy)pyridin-2-yl)-2,5-difluorobenzyl)-1-(oxetan-2-ylmethyl)-1H-benzo[d]imidazole-6-carboxylic acid] | 342 |
| N#CC1(NC(=O)c2cc(Cl)c(COc3cccc(-c4cc(F)c(Cc5nc6ccc(C(=O)O)cc6n5C[C@@H]5CCO5)cc4F)n3)cn2)CCC1 [Example 189, (S)-2-(4-(6-((4-chloro-6-((1-cyanocyclobutyl)carbamoyl)pyridin-3-yl)methoxy)pyridin-2-yl)-2,5-difluorobenzyl)-1-(oxetan-2-ylmethyl)-1H-benzo[d]imidazole-6-carboxylic acid] | 300 |

The next lines start with the values.

| EC50 [pM] | Compound |
| --- | --- |
| 617 | Cn1nncc1C#Cc1ccc(COc2cccc(-c3cc(F)c(Cc4nc5ccc(C(=O)O)cc5n4C[C@@H]4CCO4)cc3F)n2)c(F)n1 [Example 278, (S)-2-(2,5-difluoro-4-(6-((2-fluoro-6-((1-methyl-1H-1,2,3-triazol-5-yl)ethynyl)pyridin-3-yl)methoxy)pyridin-2-yl)benzyl)-1-(oxetan-2-ylmethyl)-1H-benzo[d]imidazole-6-carboxylic acid] |
| 90 | Cc1ncc(C#Cc2ccc(COc3cccc(-c4cc(F)c(Cc5nc6ccc(C(=O)O)cc6n5C[C@@H]5CCO5)cc4F)n3)c(F)c2)cn1 [Example 146, (S)-2-(2,5-difluoro-4-(6-((2-fluoro-4-((2-methylpyrimidin-5-yl)ethynyl)benzyl)oxy)pyridin-2-yl)benzyl)-1-(oxetan-2-ylmethyl)-1H-benzo[d]imidazole-6-carboxylic acid] |
| 330 | Cn1cc(C#Cc2ccc(COc3cccc(-c4cc(F)c(Cc5nc6ccc(C(=O)O)cc6n5C[C@@H]5CCO5)cc4F)n3)c(F)n2)cn1 [Example 362, (S)-2-(2,5-difluoro-4-(6-((2-fluoro-6-((1-methyl-1H-pyrazol-4-yl)ethynyl)pyridin-3-yl)methoxy)pyridin-2-yl)benzyl)-1-(oxetan-2-ylmethyl)-1H-benzo[d]imidazole-6-carboxylic acid] |
| 180 | N#CC1(Cn2cc(-c3ccc(COc4cccc(-c5cc(F)c(Cc6nc7ccc(C(=O)O)cc7n6C[C@@H]6CCO6)cc5F)n4)c(F)c3)cn2)CC1 [Example 159, (S)-2-(4-(6-((4-(1-((1-cyanocyclopropyl)methyl)-1H-pyrazol-4-yl)-2-fluorobenzyl)oxy)pyridin-2-yl)-2,5-difluorobenzyl)-1-(oxetan-2-ylmethyl)-1H-benzo[d]imidazole-6-carboxylic acid] |
| 620 | Cn1ncc(C#Cc2ccc(COc3cccc(-c4cc(F)c(Cc5nc6ccc(C(=O)O)cc6n5C[C@@H]5CCO5)cc4F)n3)c(F)c2)c1Cl [Example 361, (S)-2-(4-(6-((4-((5-chloro-1-methyl-1H-pyrazol-4-yl)ethynyl)-2-fluorobenzyl)oxy)pyridin-2-yl)-2,5-difluorobenzyl)-1-(oxetan-2-ylmethyl)-1H-benzo[d]imidazole-6-carboxylic acid] |
| 2570 | NC(=O)c1cc(F)c(COc2cccc(-c3cc(F)c(Cc4nc5ccc(C(=O)O)cc5n4C[C@@H]4CCO4)cc3F)n2)cc1F [Example 172, (S)-2-(4-(6-((4-carbamoyl-2,5-difluorobenzyl)oxy)pyridin-2-yl)-2,5-difluorobenzyl)-1-(oxetan-2-ylmethyl)-1H-benzo[d]imidazole-6-carboxylic acid] |
